# Where two headings read alike, the source gives them in different places.
# Columns and labels:
# Type in all cases: cell-based, human
# NF-κB = test: LPS-induced NF-κB-driven luciferase gene reporter assay in THP-1 Lucia monocytes; settings: for Rel. Slope: HS relative to LXA4 (1); for IC50: Homo sapiens, THP-1; for Potency Rel. Pot.: IC50 relative to LXA4 (1); for Efficacy Rel. Eff.: Imax relative to LXA4 (1); for Imax (%): maximal % inhibition of LPS (50 ng/mL)-stimulated NF-κB luciferase activity, 30 min pretreatment; for Imax (%) / reduction of LPS-induced NF-κB-driven luciferase activity: 1 pM–1 μM; for (Single component) Rel. Score: Rel. Pot. / (Single component) Rel. Score: Rel. Sl.: score relative to LXA4 (1); for reduction of LPS-induced NF-κB-driven luciferase activity: approximate extent; for Slope HS (Hill–Slope): slope of concentration–response curve; for (Aggregate) Rel. PD Score: sum of efficacy, potency, slope scores relative to LXA4 (1)
# Experimental: Mycoplasma-free THP-1-Lucia NF-κB cells were grown in an RPMI 1640 (Gibco) medium containing 2 mM L-glutamine, 1.50 g/L sodium bicarbonate, 4.50 g/L glucose, 10 mM N-(2-hydroxyethyl)piperazine-N′-ethanesulfonic acid (HEPES), and 1 mM sodium pyruvate. Then, 10% heat-inactivated fetal bovine serum (FBS) (30 min at 56 °C), 100 μg/mL Normocin, and Pen-Strep (50 U/mL to 50 μg/mL) were also added to the growth media. As THP-1-Lucia cells were resistant to Zeocin, the latter was used as a selective antibiotic (a high dose, i.e., 100 μg/mL, was alternated every 2 weeks with a low dose, i.e., 10 μg/mL).
# (§1) LXA41 and all of the tested sLXms were dissolved in ethanol and further diluted in a culture medium (final ethanol concentration 0.1%; equivalent concentrations were used as the vehicle control). Prior to in vitro experiments, THP-1-Lucia NF-κB cells were harvested and plated at 1 × 10^5 cells/well on 96-well plates and left to settle in the incubator at 37 °C, 95% humidity, and 5% CO2, in 0.1% FBS-containing media, pretreated for 30 min with increasing doses of LXA41, sLXms (from 10^–12 to 10^–6 M), or appropriate controls, followed by stimulation with 50 ng/mL LPS for 24 h.
# NFκB activity was monitored in the human THP-1 monocytic leukemia cell line containing a stably integrated NF-κB-inducible Lucia reporter construct (as previously reported).[21] When stimulated with LPS, the transcription factor NF-κB is activated, upregulating the synthesis of proinflammatory mediators, thus bringing about an inflammatory response. In these cells, NF-κB activation is linked to a […] luciferase gene and can be measured using luminescence.
# Heat-killed listeria monocytogenes (HKLM) (10^8/mL) was used as a positive control.[28] The levels of NF-κB-induced Luciferase were then measured in a culture supernatant using QUANTI-Luc as the detection reagent, and measurements were taken on a bioluminescence reader.
# After 24 h, the levels of NF-κB-induced Lucia were assayed in a cell culture supernatant using QUANTI-Luc, as a detection reagent, on a bioluminescence reader (Synergy HT, BioTek Instruments, Inc. Vermont). Aliquots of the supernatant were retained for subsequent cytokine and LDH assays. Cellular proteins were extracted with a radioimmunoprecipitation assay (RIPA) buffer (Thermo Fisher, Ireland), supplemented with protease inhibitors (Sigma-Aldrich, Ireland). Lysates were clarified by centrifugation (3200g, 10’, 4 °C) to remove cell debris, and the cell protein level was quantified by performing a bicinchoninic acid (BCA) assay (as per the manufacturer’s instructions) reading the protein absorbance at 570 nm, using a spectrophotometer (SPECTRAMAX M2, Molecular Devices (U.K.) Limited). A “relative luminescence unit” (RLU) was obtained using the average value of the lum/abs ratio of two replicates.
# The “coding” of the heat-map indicates the arbitrary criteria to assign points to each single PD component (efficacy = Imax or Emax; potency = IC50 or EC50; slope = HS) to generate a final (aggregate) relative PD score. […] If a single PD component was equal to the reference level (x = 1), then the single-component relative score was arbitrarily set to 0 (gray). If a single PD component was smaller than the reference level (x < 1), then the single-component relative score was arbitrarily set to −1 (light red) or −2 (dark red). If the curve of a single PD component was best fitting to a flat line (x = 0), then the single-component relative score was arbitrarily set to −4 (purple) (Table S1).
# IL-1β = test: LPS-induced IL-1β release from THP-1 Lucia monocytes (multiplex electrochemiluminescence); settings: for IC50: Homo sapiens, THP-1
# Experimental: as §1, with “h. Untreated (Unt) or vehicle-treated (Veh) cells were used as negative controls; 1 pM (1R)-5, the (1R)-epimer of the benzo-mimetic, was used as a positive control for any aromatic mimetic; and, finally, we compared the observed effects to the conventional glucocorticoid dexamethasone (Dex) treatment, at 1 μM.” for “h.”
# After 24 h of exposure to LXA41, sLXms, or vehicle, followed by LPS stimulation (50 ng/mL), as described above, THP-1-Lucia NF-κB-cell supernatants were collected and cleared by centrifugation. Concentrations of IFN-γ, IL-1β, IL-6, IL-8, IL-10, IL-12p70, and TNF-α in culture supernatants were assessed by electro-chemi-luminescent detection, using a commercially available human 96-well plate “multiplex” (several analytes in the same well) kit for tissue culture samples, according to the manufacturers’ guidelines.
# The “coding” of the heat-map indicates the arbitrary criteria to assign points to each single PD component (efficacy = Imax or Emax; potency = IC50 or EC50; slope = HS) to generate a final (aggregate) relative PD score. If a single PD component was greater than the reference level (x > 1), then the single-component relative score was arbitrarily set to +1 (light green) or +2 (dark green). If a single PD component was equal to the reference level (x = 1), then the single-component relative score was arbitrarily set to 0 (gray). If a single PD component was smaller than the reference level (x < 1), then the single-component relative score was arbitrarily set to −1 (light red) or −2 (dark red). If the curve of a single PD component was best fitting to a flat line (x = 0), then the single-component relative score was arbitrarily set to −4 (purple) (Table S1).
# THP-1 LUCIA monocytes = test: In vitro safety study: Safety index (Si), activity versus toxicity; settings: for IC50: Homo sapiens, THP-1, highest IC50 among the LPS-challenged assays (NF-κB activity, cytokine, LDH release), read-out: Extrinsic Activity hIC50; for Safety Index TC50/IC50: ratio of intrinsic TC50 to extrinsic hIC50
# Experimental: A postanalysis “safety study” was conducted on all QNX-sLXms. For each tested compound, we calculated an in vitro “Safety index” (Si) by relating its “anti-inflammatory half-maximal activity” (the highest dose among the IC50 of the extrinsic LPS-challenged phenotype: NF-κB activity, proinflammatory cytokine, and LDH release) to its intrinsic “toxicity” (expressed as the relative half-maximal LDH-associated cytotoxicity). The generated Si is potentially predictive of a translational “therapeutic” range: the higher the Si, the safer the molecule is. As summarized in Table S4, Si values from all tested compounds fall in a broad range (7–50).
# [1] = LPS 50 ng/mL, 24 h, read-out: Potency IC50
"IC50 (NF-κB; LPS 50 ng/mL, 24 h, read-out: IC50)","IC50 (IL-1β; LPS 50 ng/mL, 24 h)",IC50 (NF-κB; [1]),"IC50 (range in words) (NF-κB; LPS 50 ng/mL, 24 h)",SMILES,Rel. Slope (NF-κB),Potency Rel. Pot. (NF-κB),Efficacy Rel. Eff. (NF-κB),Imax (%) (NF-κB; 24 h),(Single component) Rel. Score: Rel. Pot. (NF-κB),(Single component) Rel. Score: Rel. Sl. (NF-κB),"Imax, IL-1β release (IL-1β; concentration–response, LPS 50 ng/mL, 24 h)","PD score, IL-1β release (IL-1β; relative to LXA4 (1))","rel. slope, IL-1β release (IL-1β; relative to LXA4 (1))",IC50 (THP-1 LUCIA monocytes),Safety Index TC50/IC50 (THP-1 LUCIA monocytes),reduction of LPS-induced NF-κB-driven luciferase activity (NF-κB),Slope HS (Hill–Slope) (NF-κB),(Aggregate) Rel. PD Score (NF-κB)
0.025 nM,0.001 nM,,,"CCCCC[C@@H](O)c1nc2ccccc2nc1/C=C/[C@@H](O)[C@@H](O)CCCC(=O)OC [(R)-6, Methyl (5S,6R,E)-5,6-Dihydroxy-8-(3-((R)-1-hydroxyhexyl)quinoxalin-2-yl)oct-7-enoate]",57,2.4,1.58,38 ± 9%,1 (1 < x < 5),2 (x ≥ 10),73 ± 2%,−2,−0.03,0.025 nM,20,,,
,,0.01 nM,“pM” range,"CCCCCCC[C@H](O)c1nc2ccccc2nc1/C=C/[C@@H](O)[C@@H](O)CCCC(=O)OC [(S)-8, Methyl (5S,6R,E)-5,6-Dihydroxy-8-(3-((S)-1-hydroxyoctyl)quinoxalin-2-yl)oct-7-enoate]",0,6,0.96,23 ± 8%,2 (x ≥ 5),-4 (x = 0),,,,0.01 nM,10,10–20%,0,-2

# Second part, the compound before the results:
SMILES,"IC50 (NF-κB; LPS 50 ng/mL, 24 h, read-out: IC50)","IC50 (IL-1β; LPS 50 ng/mL, 24 h)",IC50 (NF-κB; [1]),"IC50 (range in words) (NF-κB; LPS 50 ng/mL, 24 h)",Rel. Slope (NF-κB),Potency Rel. Pot. (NF-κB),Efficacy Rel. Eff. (NF-κB),Imax (%) (NF-κB; 24 h),(Single component) Rel. Score: Rel. Pot. (NF-κB),(Single component) Rel. Score: Rel. Sl. (NF-κB),"Imax, IL-1β release (IL-1β; concentration–response, LPS 50 ng/mL, 24 h)","PD score, IL-1β release (IL-1β; relative to LXA4 (1))","rel. slope, IL-1β release (IL-1β; relative to LXA4 (1))",IC50 (THP-1 LUCIA monocytes),Safety Index TC50/IC50 (THP-1 LUCIA monocytes),reduction of LPS-induced NF-κB-driven luciferase activity (NF-κB),Slope HS (Hill–Slope) (NF-κB),(Aggregate) Rel. PD Score (NF-κB)
"CCCCC[C@@H](O)c1nc2ccccc2nc1/C=C/[C@H]1OC(C)(C)O[C@H]1CCCC(=O)OC [(R)-17, Methyl 4-((4S,5R)-5-((E)-2-(3-((R)-1-Hydroxyhexyl)quinoxalin-2-yl)vinyl)-2,2-dimethyl-1,3-dioxolan-4-yl)butanoate]",,,0.001 nM,,0,60,0.75,18 ± 7%,2 (x ≥ 5),-4 (x = 0),,,,0.01 nM,10,least effective,0,-3
"CCCCC[C@H](O)/C=C/C=C\C=C\C=C\[C@@H](O)[C@@H](O)CCCC(=O)O [Compound 1, LXA4]",,0.001 nM,,,1,1,1,24 ± 1%,,,,,,,,,,
"CCCCC[C@@H](O)c1c(/C=C/[C@@H](O)[C@@H](O)CCCC(=O)OC)nc(C)n1C [Compound 5, imidazolo-LXA4]",,,,,-9,300,1.83,44 ± 9%,2 (x ≥ 5),1 (1 < x < 10),,,,,,,90,5
